Assays:
[1] = tested on: human airway epithelial cells (HAECs); assay: High-throughput sequencing (HTS) of miRNAs at four stages of differentiation of HAECs; details: for Modulation (ratio of the level of intensity of expression in log2 in two stages of differentiation) measured by high-throughput sequencing, D7 − D0 / Modulation (ratio of the level of intensity of expression in log2 in two stages of differentiation) measured by high-throughput sequencing, FC − D7 / Modulation (ratio of the level of intensity of expression in log2 in two stages of differentiation) measured by high-throughput sequencing, WD − D0 / Modulation (ratio of the level of intensity of expression in log2 in two stages of differentiation) measured by high-throughput sequencing, WD − FC / Level of intensity of expression in log2 measured by high-throughput sequencing, D0 / Level of intensity of expression in log2 measured by high-throughput sequencing, D7 / Level of intensity of expression in log2 measured by high-throughput sequencing, FC / Level of intensity of expression in log2 measured by high-throughput sequencing, WD: Table VI; for Level of intensity of expression in log2 At the differentiated stage (WD) measured in HTS: healthy human airway epithelial tissue; for Level of intensity of expression in log2 measured by high-throughput sequencing, D0: stage D0; for Level of intensity of expression in log2 measured by high-throughput sequencing, D7: stage D7; for Level of intensity of expression in log2 measured by high-throughput sequencing, FC: stage FC; for Level of intensity of expression in log2 At the differentiated stage (WD) measured in HTS / Level of intensity of expression in log2 measured by high-throughput sequencing, WD: stage WD
Method in brief: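 Small-RNA libraries from differentiating HAECs (ALI-D0 to ALI-WD) were built by ligation-based SOLiD chemistry, size-selected and sequenced. Strand counts were normalized per million reads, converted to percentage abundance, and filtered on adjusted P-value below 0.05.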

[2] = tested on: human airway epithelial cells (HAECs); assay: Agilent miRNA chips, miRNA expression at four stages of differentiation of HAECs; details: for Modulation (ratio of the level of intensity of expression in log2 in two stages of differentiation) measured with the Agilent chips, D7 − D0 / Modulation (ratio of the level of intensity of expression in log2 in two stages of differentiation) measured with the Agilent chips, FC − D7 / Modulation (ratio of the level of intensity of expression in log2 in two stages of differentiation) measured with the Agilent chips, WD − D0 / Modulation (ratio of the level of intensity of expression in log2 in two stages of differentiation) measured with the Agilent chips, WD − FC / Level of intensity of expression in log2 measured with the Agilent chips, D0 / Level of intensity of expression in log2 measured with the Agilent chips, D7 / Level of intensity of expression in log2 measured with the Agilent chips, FC / Level of intensity of expression in log2 measured with the Agilent chips, WD: Table VI; for Modulation (ratio of the level of intensity of expression in log2 at two stages of differentiation), FC − D7 / Modulation (ratio of the level of intensity of expression in log2 at two stages of differentiation), WD − FC: Agilent miRNA chips, Table V; for Level of intensity of expression in log2 measured with the Agilent chips, D0: stage D0; for Level of intensity of expression in log2 measured with the Agilent chips, D7: stage D7; for Level of intensity of expression in log2 measured with the Agilent chips, FC: stage FC; for Level of intensity of expression in log2 measured with the Agilent chips, WD: stage WD
Method in brief: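 RNA from the same patients used for small-RNA sequencing was labelled and hybridized to a Human miRNA Microarray v2 (866 human and 89 human viral miRNAs, covering miRBase v.12.0) with the kit's labelling and hybridization protocol, giving miRNA expression profiles to compare against the sequencing data.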

[3] = tested on: basal cells and pyramidal cells of the airway epithelium; assay: miRNA expression in sorted basal cells versus pyramidal cells (ciliated + secretory), HTS and Agilent chips; set-up: species or system human; details: for Modulation of expression of the miRNAs in pyramidal cells (323(−)) relative to basal cells 323(+): HTS and Agilent chips; for Intensity of the level of expression in log2 in pyramidal cells (323(−)): pyramidal cells (ciliated + secretory)
Method in brief: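 Epithelium dissociated from nasal polyps is held 30 min in PBS-BSA-EDTA, then labelled 20 min at 4° C for CD151 and tissue factor. After DAPI staining, live single cells are sorted into marker-double-positive and double-negative fractions, and sort purity and identity are verified. Total RNA then undergoes miRNA profiling on arrays or by sequencing.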

Substance | Modulation (ratio of the level of intensity of expression in log2 in two stages of differentiation) measured by high-throughput sequencing, D7 − D0 [1] [log2] | Modulation (ratio of the level of intensity of expression in log2 in two stages of differentiation) measured by high-throughput sequencing, FC − D7 [1] [log2] | Modulation (ratio of the level of intensity of expression in log2 in two stages of differentiation) measured by high-throughput sequencing, WD − D0 [1] [log2] | Modulation (ratio of the level of intensity of expression in log2 in two stages of differentiation) measured by high-throughput sequencing, WD − FC [1] [log2] | Level of intensity of expression in log2 At the differentiated stage (WD) measured in HTS [1] [log2] | Level of intensity of expression in log2 measured by high-throughput sequencing, D0 [1] [log2] | Level of intensity of expression in log2 measured by high-throughput sequencing, D7 [1] [log2] | Level of intensity of expression in log2 measured by high-throughput sequencing, FC [1] [log2] | Level of intensity of expression in log2 measured by high-throughput sequencing, WD [1] [log2] | Modulation (ratio of the level of intensity of expression in log2 in two stages of differentiation) measured with the Agilent chips, D7 − D0 [2] [log2] | Modulation (ratio of the level of intensity of expression in log2 at two stages of differentiation), FC − D7 [2] [log2] | Modulation (ratio of the level of intensity of expression in log2 in two stages of differentiation) measured with the Agilent chips, FC − D7 [2] [log2] | Modulation (ratio of the level of intensity of expression in log2 in two stages of differentiation) measured with the Agilent chips, WD − D0 [2] [log2] | Modulation (ratio of the level of intensity of expression in log2 at two stages of differentiation), WD − FC [2] [log2] | Modulation (ratio of the level of intensity of expression in log2 in two stages of differentiation) measured with the Agilent chips, WD − FC [2] [log2] | Level of intensity of expression in log2 measured with the Agilent chips, D0 [2] [log2] | Level of intensity of expression in log2 measured with the Agilent chips, D7 [2] [log2] | Level of intensity of expression in log2 measured with the Agilent chips, FC [2] [log2] | Level of intensity of expression in log2 measured with the Agilent chips, WD [2] [log2] | Modulation of expression of the miRNAs in pyramidal cells (323(−)) relative to basal cells 323(+) [3] | also measured
hsa-miR-30b: human miRNA, SEQ ID No. 33 (UGUAAACAUCCUACACUCAGCU; expressed or natural sequence; listed as Homo sapiens) | 0.83 | −0.27 | 1.24 | 0.68 | 0.01 | 8.50 | 9.33 | 9.06 | 9.74 | 2.36 | 0.05 | 0.05 | 2.55 | 0.15 | 0.15 | 7.62 | 9.98 | 10.03 | 10.17 | −0.80 | Intensity of the level of expression in log2 in basal cells (323(+)) [3]: 8.76 log2; Intensity of the level of expression in log2 in pyramidal cells (323(−)) [3]: 7.96 log2
hsa-miR-30c: human miRNA, SEQ ID No. 34 (UGUAAACAUCCUACACUCUCAGC; expressed or natural sequence; listed as Homo sapiens) | 0.32 | −0.33 | −0.40 | −0.39 | 10.87 | 0.42 | 0.73 | 0.41 | 0.01 | 1.97 | −0.34 | −0.34 | 1.51 | −0.12 | −0.12 | 7.80 | 9.77 | 9.43 | 9.31 | −1.01 | Intensity of the level of expression in log2 in basal cells (323(+)) [3]: 6.92 log2; Intensity of the level of expression in log2 in pyramidal cells (323(−)) [3]: 5.91 log2
hsa-miR-30d: human miRNA, SEQ ID No. 35 (UGUAAACAUCCCCGACUGGAAG; expressed or natural sequence; listed as Homo sapiens) | 0.64 | −0.09 | 1.75 | 1.20 | 8.76 | 9.12 | 9.76 | 9.67 | 10.87 | 1.88 | −0.06 | −0.06 | 1.86 | 0.05 | 0.05 | 7.06 | 8.94 | 8.88 | 8.92 | −1.11 | Intensity of the level of expression in log2 in basal cells (323(+)) [3]: 8.16 log2; Intensity of the level of expression in log2 in pyramidal cells (323(−)) [3]: 7.05 log2
